Measurements from patent US11109593B2, “Isoxazolin-5-one derivative and herbicide containing same as active ingredient” (HOKKO CHEMICAL INDUSTRY CO., LTD., priority 2017, dated 2021).

Columns and labels:
Assay type in all cases: in vivo
[1] = system: broad leaf weeds (Lindernia pyxidaria and Monochoria vaginalis); test: Test Example 2: herbicidal effect test by treatment during growing period in paddy rice cultivation (seven days after seeding); conditions: for Herbicidal rate (%) Lindernia pyxidaria / Herbicidal rate (%) Monochoria vaginalis: 120 g/10a active ingredient, assessed 14 days after treatment, dry weight vs untreated area; for herbicidal rate, Lindernia pyxidaria / herbicidal rate, Monochoria vaginalis: 120 g/10a, rated 14 days after treatment, paddy soil pots
How it was run: (§1)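 Sow 30 seeds per species (0–1 cm) into puddled, fertilized paddy soil; keep flooded ~3 cm in greenhouse. Day 7 after seeding: drop water-diluted emulsion, 120 g a.i./10 ares. Harvest 14 d post-treatment; compare dry weight with untreated pots (duplicate).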

[2] = system: Scirpus juncoides; test: as above; conditions: for Herbicidal rate (%) Scirpus juncoides: 120 g/10a active ingredient, assessed 14 days after treatment, dry weight vs untreated area; for herbicidal rate, Scirpus juncoides: 120 g/10a, rated 14 days after treatment, paddy soil pots
How it was run: as §1

[3] = system: Echinochloa crus-galli; test: as above; conditions: for Herbicidal rate (%) Echinochloa crus-galli: 120 g/10a active ingredient, assessed 14 days after treatment, dry weight vs untreated area; for herbicidal rate, Echinochloa crus-galli: 120 g/10a, rated 14 days after treatment, paddy soil pots
How it was run: as §1

[4] = system: broad leaf weeds (Lindernia pyxidaria and Monochoria vaginalis); test: Test Example 1: herbicidal effect test by treatment of rice paddy soil (immediately after seeding)
How it was run: (§2)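 Flooded paddy pot test in a glass greenhouse: emulsion diluted in water, dropped at 120 g a.i. per 10 ares just after sowing, water depth kept about 3 cm. Dry-weight reduction relative to untreated plants is scored at 14 days.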

[5] = system: Scirpus juncoides; test: as above
How it was run: as §2

[6] = system: Echinochloa crus-galli; test: as above
How it was run: as §2

[7] = Lindernia pyxidaria, 120 g/10a active ingredient, dry weight vs untreated area, 14 days after treatment
[8] = Monochoria vaginalis, 120 g/10a active ingredient, dry weight vs untreated area, 14 days after treatment
[9] = 120 g/10a active ingredient, dry weight vs untreated area, 14 days after treatment
[10] = Lindernia pyxidaria, 120 g/10a active ingredient, 14 days after treatment, dry weight vs untreated area
[11] = Monochoria vaginalis, 120 g/10a active ingredient, 14 days after treatment, dry weight vs untreated area
[12] = 120 g/10a active ingredient, 14 days after treatment, dry weight vs untreated area

| Structure (SMILES) | Herbicidal rate (%) Lindernia pyxidaria [1] [%] | Herbicidal rate (%) Monochoria vaginalis [1] [%] | Herbicidal rate (%) Scirpus juncoides [2] [%] | Herbicidal rate (%) Echinochloa crus-galli [3] [%] | Herbicidal rate (%) Lindernia pyxidaria [4, 7] [%] | Herbicidal rate (%) Monochoria vaginalis [4, 8] [%] | Herbicidal rate (%) Scirpus juncoides [5, 9] [%] | Herbicidal rate (%) Echinochloa crus-galli [6, 9] [%] | herbicidal rate, Lindernia pyxidaria [1] [%] | herbicidal rate, Monochoria vaginalis [1] [%] | herbicidal rate, Scirpus juncoides [2] [%] | herbicidal rate, Echinochloa crus-galli [3] [%] | Herbicidal rate (%) Lindernia pyxidaria [4, 10] [%] | Herbicidal rate (%) Monochoria vaginalis [4, 11] [%] | Herbicidal rate (%) Scirpus juncoides [5, 12] [%] | Herbicidal rate (%) Echinochloa crus-galli [6, 12] [%] |
| --- | --- | --- | --- | --- | --- | --- | --- | --- | --- | --- | --- | --- | --- | --- | --- | --- |
| Cc1c(Cc2ccccc2NS(=O)(=O)C(F)(F)F)c(=O)on1CC(F)(F)c1ccccc1 [Compound 1-220] | 100 | 90 | 90 | 40 | 100 | 100 | 90 | 90 | – | – | – | – | – | – | – | – |
| CCC(CC)Cn1oc(=O)c(Cc2ccccc2N(CC)S(=O)(=O)C(F)(F)F)c1C [Compound 1-264] | 50 | 80 | 90 | 80 | 80 | 90 | 100 | 90 | – | – | – | – | – | – | – | – |
| CCCOC(=O)N(c1ccccc1Cc1c(C)n(C(C)COC)oc1=O)S(=O)(=O)C(F)(F)F (centres unmarked) [Compound 1-634] | 90 | 90 | 90 | 90 | 90 | 90 | 90 | 90 | – | – | – | – | – | – | – | – |
| Cc1c(Cc2ccccc2NS(=O)(=O)C(F)(F)F)c(=O)on1CCOC(C)C [Compound 1-155] | 60 | 60 | 80 | 100 | 60 | 60 | 80 | 90 | – | – | – | – | – | – | – | – |
| Cc1c(Cc2ccccc2N(C(=O)OCC(C)C)S(=O)(=O)C(F)(F)F)c(=O)on1Cc1ccccc1 [Compound 1-677] | 80 | 80 | 90 | 70 | 100 | 100 | 90 | 90 | – | – | – | – | – | – | – | – |
| Cc1c(Cc2ccccc2N(S(=O)(=O)C(F)(F)F)S(=O)(=O)C(F)(F)F)c(=O)on1CCOCc1ccccc1 [Compound 1-1059] | – | – | – | – | – | – | – | – | 40 | 70 | 70 | 90 | 80 | 90 | 80 | 100 |
| CC(C)n1oc(=O)c(Cc2ccccc2N(S(=O)(=O)C(F)(F)F)S(=O)(=O)C(F)(F)F)c1C1CC1 [Compound 1-84] | 40 | 40 | 70 | 40 | 70 | 70 | 80 | 80 | – | – | – | – | – | – | – | – |
| Cc1c(Cc2ccccc2N(S(=O)(=O)C(F)(F)F)S(=O)(=O)C(F)(F)F)c(=O)on1Cc1ccc(Cl)cc1 [Compound 1-1015] | 90 | 90 | 90 | 70 | 100 | 90 | 90 | 90 | – | – | – | – | – | – | – | – |
| Cc1c(Cc2ccccc2N(S(=O)(=O)C(F)(F)F)S(=O)(=O)C(F)(F)F)c(=O)on1Cc1ccc(F)cc1F [Compound 1-1026] | 100 | 90 | 80 | 60 | 100 | 100 | 90 | 100 | – | – | – | – | – | – | – | – |
| Cc1c(Cc2ccccc2NS(=O)(=O)C(F)(F)F)c(=O)on1Cc1cccc(F)c1 [Compound 1-182] | 60 | 60 | 70 | 40 | 100 | 90 | 100 | 90 | – | – | – | – | – | – | – | – |
| COc1ccc(Cn2oc(=O)c(Cc3ccccc3N(S(=O)(=O)C(F)(F)F)S(=O)(=O)C(F)(F)F)c2C)cc1 [Compound 1-1022] | 100 | 100 | 90 | 70 | 100 | 100 | 90 | 90 | – | – | – | – | – | – | – | – |
| Cc1c(Cc2ccccc2N(S(=O)(=O)C(F)(F)F)S(=O)(=O)C(F)(F)F)c(=O)on1CC1CC1 [Compound 1-991] | 70 | 80 | 90 | 90 | 100 | 100 | 90 | 90 | – | – | – | – | – | – | – | – |
| Cc1c(Cc2ccccc2N(S(=O)(=O)C(F)(F)F)S(=O)(=O)C(F)(F)F)c(=O)on1Cc1ccc(F)cc1Cl [Compound 1-1028] | 40 | 40 | 0 | 0 | 80 | 90 | 40 | 80 | – | – | – | – | – | – | – | – |
| Cc1c(Cc2ccccc2N(S(=O)(=O)C(F)(F)F)S(=O)(=O)C(F)(F)F)c(=O)on1CCc1ccc(F)cc1 [Compound 1-1044] | 40 | 40 | 70 | 70 | 60 | 40 | 40 | 90 | – | – | – | – | – | – | – | – |
| Cc1c(Cc2ccccc2N(S(=O)(=O)C(F)(F)F)S(=O)(=O)C(F)(F)F)c(=O)on1C(C)c1ccsc1 (centres unmarked) [Compound 1-1057] | – | – | – | – | – | – | – | – | 60 | 80 | 80 | 80 | 80 | 80 | 90 | 90 |
| CCN(CC)C(=O)n1oc(=O)c(Cc2ccccc2N(C(=O)OCC(C)C)S(=O)(=O)C(F)(F)F)c1C [Compound 1-679] | 40 | 40 | 40 | 50 | 50 | 50 | 50 | 60 | – | – | – | – | – | – | – | – |
| Cc1c(Cc2ccccc2N(C(=O)OCC(C)C)S(=O)(=O)C(F)(F)F)c(=O)on1CC(C)C [Compound 1-671] | 60 | 90 | 90 | 90 | 90 | 90 | 90 | 90 | – | – | – | – | – | – | – | – |
| Cc1c(Cc2ccccc2N(S(=O)(=O)C(F)(F)F)S(=O)(=O)C(F)(F)F)c(=O)on1CC(F)(F)c1ccccc1 [Compound 1-1047] | 90 | 80 | 80 | 80 | 100 | 80 | 90 | 90 | – | – | – | – | – | – | – | – |
| Cc1c(Cc2ccccc2N(S(=O)(=O)C(F)(F)F)S(=O)(=O)C(F)(F)F)c(=O)on1CCc1ccccc1 [Compound 1-1043] | 100 | 100 | 90 | 90 | 100 | 100 | 90 | 100 | – | – | – | – | – | – | – | – |
